pIC50: −log10 of the molar value. Where a SMILES comes first, the peptide text is derived from it. [ ]: non-standard residue; d: D form. ξ: configuration not given here. ξP = O=C(O)C1CCCN1
Columns and labels:
[1] = test system: AMPA receptor; assay: Whole cell patch-clamp on CA1 pyramidal cells in brain slices, synaptic AMPA responses; assay type: cell-based, C57BL/6 mice
Method: Whole cell patch-clamp experiments were performed in parasagital brain slices on CAI pyramidal cells. The animals used for this study were C57BL/6 mice. After decapitation of the mice brains were quickly removed and placed in aerated (95% O2, 5% CO2) artificial cerebrospinal fluid (ASCF) solution at 4° C. The ACSF solution was composed of (mM): 124 NaCl, 2.5 KCl, 1.3 MgCl2, 26 NaHCO3, 1.25 NaH2PO4, 2.5 CaCl2 […] Synaptic AMPA responses were evoked every 10 seconds with a bipolar platinum electrode and recorded in the voltage clamp configuration with 4-5 MΩ patch pipette at a holding potential of −60 mV. Baseline recordings were performed with 100 μM picrotoxin in the ACSF. After establishing a stable synaptic AMPA response the tripeptide EPP (140 μM) was added to the bath, continuing the recording for an additional 20 to 30 minutes. At the end of every experiment NBQX (20 μM) was bath applied to block the AMPA response. The residual trace was subtracted from the previous recordings to show only the AMPA current. […]
Parameters measured to estimate the action of EPP were the holding current, amplitude, and initial slope of the AMPA responses. Additionally the amplitude ratio and initial slope ratio of the two AMPA responses from the paired pulse experiments was determined.

[2] = biological target: AMPA receptor; assay: [3H] AMPA radioligand binding assay; settings: displacement of 5 nM [3H] AMPA, rat cerebral cortex membranes, 25° C., 90 min; semi-quantitative, duplicates
Method: Polypeptides or amino acid compositions of the instant invention were tested for the ability to bind to the AMPA receptor using a previously validated [3H] AMPA radioligand to binding assay (see, for example Olsen R W, Szamraj O, Houser C R Brain Res. 1987; 402(2):243-54.). Upon binding, the peptide is displacing the parent radioligand from the glutamate binding site of the AMPA receptor. Binding inhibition of 50% or more is generally considered as significant.
The membrane has been prepared as described in example 1.
Frozen pellets were thawed at room temperature and washed three times by resuspension in 50 mM Tris-acetate (pH 7.4) and centrifugation. Final pellets were suspended at concentrations of 2 to 3 mg/ml in 50 mM Tris-HCl (pH 7.4, 200 mM KSCN). Binding reactions were initiated by the addition of 200 μg of freshly prepared membranes to reaction mixtures (about 1 ml final volume) containing 5 nM [3H] AMPA at 25° C. in the presence of a range of peptide concentrations (0.5 μM, 1 μM, 10 μM, 100 μM and 200 μM). Incubation time was 90 min. Non-specific binding was determined using 1000 μM unlabelled L-Glutamic acid. […]
(§1) Assay results are presented as the % inhibition of specific binding. […] Semi-quantitative follow-up to estimate IC50 was done in duplicates at the indicated peptide concentrations.

[3] = biological target: glycine co-agonist site on the NMDA receptor (Rattus norvegicus, UniProt P35439); assay: [3H] MDL-105519 radioligand binding assay, glycine co-agonist site of the NMDA receptor; settings: displacement of 0.33 nM [3H] MDL-105519, rat cerebral cortex membranes
Method: Polypeptides or amino acid compositions of the instant invention were tested for the ability to bind to the glycine co-agonist site on the NMDA receptor using a previously validated [3H] MDL-105519 radioligand binding assay (see, for example Siegel B W, Sreekrishna K, Baron B M. Eur J Pharmacol. 1996 Oct. 3; 312(3):357-65). Upon binding, the peptide is displacing the parent radioligand from the NR1a binding site of the NMDA receptor. Binding inhibition of 50% or more is generally considered as significant.
Crude synaptic membranes used in the assay were prepared using rat cerebral cortex tissue (male Wistar rats) and extensively washed using the procedures described previously (Haring et al., 1991, J. Neurochem. 57:323-331). Briefly, tissue which has been stored at −80° C. was homogenized in ice-cold 5 mM Tris (pH 7.4) using a Polytron and then pelleted by centrifugation at 48,000 g for 20 minutes. The resulting supernatant was discarded, and the membranes washed three times in cold buffer. […]
Frozen pellets were thawed at room temperature and washed three times by resuspension in 50 mM Tris-acetate (pH 7.4) and centrifugation. […] Non-specific binding was determined using 10 μM unlabelled MDL-105519. […]
as §1

Q: NC(CCC(=O)O)C(=O)N1CCCC1C(=O)N1CCCC1C(=O)O (stereo not drawn) [EPP] (H-Glu-Pro-Pro-OH; configuration not given here) was tested. Which “amplitude of the first synaptic AMPA response” value ([1]; 140 μM EPP in bath, baseline −83.9±14.1 pA, p<0.05, holding potential −60 mV) did it give?
A: −130.6±22.6 pA

Q: What about the “change in slope of the AMPA response” value ([1]; 140 μM EPP versus baseline, p=0.06) of the same compound?
A: just failed to reach significance

Q: What about the pIC50 [2] of the same compound?
A: 4.85

Q: With NCC(=O)NCC(=O)N1CCCC1C(=O)O (stereo not drawn) [GGP] (H-Gly-Gly-[ξP]-OH) as the compound, how does the pIC50 ([3]; 4° C., 30 min, semi-quantitative, duplicates) read?
A: 4.95

Q: How did the pIC50 ([3]; reference compound) turn out when O=C(O)/C(=C/c1c(C(=O)O)[nH]c2cc(Cl)cc(Cl)c12)c1ccccc1 [MDL-105519, reference compound] was run?
A: 8.02
